According to patent publication US20250179051A1, “PYRIMIDINLY-OXY-QUINOLINE BASED HERBICIDAL COMPOUNDS” (SYNGENTA CROP PROTECTION AG, priority 2022, published 2025):

Experiments:
Assay type in all cases: in vivo
Details in all cases: 250 g/ha, evaluated after 13 days, five-point scale
[1] = system: Amaranthus retoflexus (AMARE); test: Pre-emergence herbicide glasshouse test
Experimental: (§1) Seeds of a variety of test species are sown in standard soil in pots Amaranthus retoflexus (AMARE), Amaranthus palmeri (AMAPA), Echinochloa crus-galli (ECHCG), Ipomoea hederacea (IPOHE), Setaria faberi (SETFA). After cultivation for one day (pre-emergence) or after 8 days cultivation (post-emergence) under controlled conditions in a glasshouse (at 24/16° C., day/night; 14 hours light; 65% humidity), the plants are sprayed with an aqueous spray solution derived from the formulation of the technical active ingredient in acetone/water (50:50) solution containing 0.5% Tween 20 (polyoxyethelyene sorbitan monolaurate, CAS RN 9005-64-5). Compounds are applied at 250 g/ha unless otherwise stated. The test plants are then grown in a glasshouse under controlled conditions in a glasshouse (at 24/16° C., day/night; 14 hours light; 65% humidity) and watered twice daily. After 13 days for pre and post-emergence, the test is evaluated for the percentage damage caused to the plant. The biological activities are shown in the following table on a five-point scale (5=81-100%; 4=61-80%; 3=41-60%; 2=21-40%; 1=0-20%).

[2] = system: Ipomoea hederacea (IPOHE); test: Pre-emergence herbicide glasshouse test
Experimental: as §1

[3] = system: Echinochloa crus-galli (ECHCG); test: Pre-emergence herbicide glasshouse test
Experimental: as §1

Setaria faberi (SETFA) [4] = test: Pre-emergence herbicide glasshouse test
Experimental: as §1

[5] = system: Amaranthus palmeri (AMAPA); test: Pre-emergence herbicide glasshouse test
Experimental: as §1

[6] = system: Amaranthus retoflexus (AMARE); test: Post-emergence herbicide glasshouse test
Experimental: as §1

[7] = system: Ipomoea hederacea (IPOHE); test: Post-emergence herbicide glasshouse test
Experimental: as §1

[8] = system: Echinochloa crus-galli (ECHCG); test: Post-emergence herbicide glasshouse test
Experimental: as §1

Setaria faberi (SETFA) [9] = test: Post-emergence herbicide glasshouse test
Experimental: as §1

[10] = system: Amaranthus palmeri (AMAPA); test: Post-emergence herbicide glasshouse test
Experimental: as §1

Structure (SMILES) | percentage damage caused to the plant, AMARE [1] | percentage damage caused to the plant, IPOHE [2] | percentage damage caused to the plant, ECHCG [3] | percentage damage caused to the plant, SETFA (Setaria faberi (SETFA) [4]) | percentage damage caused to the plant, AMAPA [5] | percentage damage caused to the plant, AMARE [6] | percentage damage caused to the plant, IPOHE [7] | percentage damage caused to the plant, ECHCG [8] | percentage damage caused to the plant, SETFA (Setaria faberi (SETFA) [9]) | percentage damage caused to the plant, AMAPA [10]
C=CCON=CCCc1nc(C(F)(F)F)nc2cccc(Oc3ncc(Cl)cn3)c12 [Compound 1.011] | 5 (5=81-100%) | 2 (2=21-40%) | 4 (4=61-80%) | 5 (5=81-100%) | 5 (5=81-100%) | 5 (5=81-100%) | 2 (2=21-40%) | 4 (4=61-80%) | 4 (4=61-80%) | 4 (4=61-80%)
CCNC(=O)CCc1nc(C(F)(F)F)nc2cccc(Oc3ncc(Cl)cn3)c12 [Compound 1.012, 3-[5-(5-chloropyrimidin-2-yl)oxy-2-(trifluoromethyl)quinazolin-4-yl]-N-ethyl-propanamide] | 1 (1=0-20%) | 1 (1=0-20%) | 1 (1=0-20%) | 1 (1=0-20%) | 2 (2=21-40%) | 2 (2=21-40%) | 1 (1=0-20%) | 1 (1=0-20%) | 1 (1=0-20%) | 3 (3=41-60%)
FC(F)(F)c1ncc(-c2nc(C(F)(F)F)nc3cccc(Oc4ncc(Cl)cn4)c23)cn1 [Compound 1.013, 5-(5-chloropyrimidin-2-yl)oxy-2-(trifluoromethyl)-4-[2-(trifluoromethyl)pyrimidin-5-yl]quinazoline] | 1 (1=0-20%) | 1 (1=0-20%) | 1 (1=0-20%) | 1 (1=0-20%) | 1 (1=0-20%) | 2 (2=21-40%) | 1 (1=0-20%) | 1 (1=0-20%) | 1 (1=0-20%) | 2 (2=21-40%)
Cc1ncc(-c2nc(C(F)(F)F)nc3cccc(Oc4ncc(Cl)cn4)c23)cn1 [Compound 1.014] | 2 (2=21-40%) | 1 (1=0-20%) | 1 (1=0-20%) | 1 (1=0-20%) | 2 (2=21-40%) | 1 (1=0-20%) | 1 (1=0-20%) | 1 (1=0-20%) | 1 (1=0-20%) | 1 (1=0-20%)
Cc1cnc(Oc2cccc3nc(C(F)(F)F)nc(CCC4CC4)c23)nc1 [Compound 1.015, 4-(2-cyclopropylethyl)-5-(5-methylpyrimidin-2-yl)oxy-2-(trifluoromethyl)quinazoline] | 5 (5=81-100%) | 3 (3=41-60%) | 5 (5=81-100%) | 5 (5=81-100%) | 5 (5=81-100%) | 4 (4=61-80%) | 3 (3=41-60%) | 4 (4=61-80%) | 5 (5=81-100%) | 2 (2=21-40%)
Cn1nc(-c2nc(C(F)(F)F)nc3cccc(Oc4ncc(Cl)cn4)c23)cc1C(F)F [Compound 1.016, 5-(5-chloropyrimidin-2-yl)oxy-4-[5-(difluoromethyl)-1-methyl-pyrazol-3-yl]-2-(trifluoromethyl)quinazoline] | 1 (1=0-20%) | 1 (1=0-20%) | 1 (1=0-20%) | 1 (1=0-20%) | 2 (2=21-40%) | 2 (2=21-40%) | 2 (2=21-40%) | 1 (1=0-20%) | 1 (1=0-20%) | 2 (2=21-40%)
CC(=NOCC(F)(F)F)c1nc(C(F)(F)F)nc2cccc(Oc3ncc(Cl)cn3)c12 [Compound 1.018, 1-[5-(5-chloropyrimidin-2-yl)oxy-2-(trifluoromethyl)quinazolin-4-yl]-N-(2,2,2-trifluoroethoxy) ethanimine] | 1 (1=0-20%) | 1 (1=0-20%) | 1 (1=0-20%) | 1 (1=0-20%) | 1 (1=0-20%) | 2 (2=21-40%) | 2 (2=21-40%) | 1 (1=0-20%) | 1 (1=0-20%) | 2 (2=21-40%)
FC(F)(F)c1nc(CCCC2CC2)c2c(Oc3ncc(Cl)cn3)cccc2n1 [Compound 1.019] | 4 (4=61-80%) | 1 (1=0-20%) | 4 (4=61-80%) | 5 (5=81-100%) | 5 (5=81-100%) | 5 (5=81-100%) | 3 (3=41-60%) | 2 (2=21-40%) | 5 (5=81-100%) | 5 (5=81-100%)
ON=CCCc1nc(C(F)(F)F)nc2cccc(Oc3ncc(Cl)cn3)c12 [Compound 1.021] | 4 (4=61-80%) | 1 (1=0-20%) | 3 (3=41-60%) | 3 (3=41-60%) | 4 (4=61-80%) | 5 (5=81-100%) | 2 (2=21-40%) | 2 (2=21-40%) | 2 (2=21-40%) | 4 (4=61-80%)
CO/N=C\CCc1nc(C(F)(F)F)nc2cccc(Oc3ncc(Cl)cn3)c12 [Compound 1.022, (Z)-3-[5-(5-chloropyrimidin-2-yl)oxy-2-(trifluoromethyl)quinazolin-4-yl]-N-methoxy-propan-1-imine] | 5 (5=81-100%) | 4 (4=61-80%) | 5 (5=81-100%) | 5 (5=81-100%) | 5 (5=81-100%) | 4 (4=61-80%) | 3 (3=41-60%) | 4 (4=61-80%) | 4 (4=61-80%) | 4 (4=61-80%)
CON1CCC(CCc2nc(C(F)(F)F)nc3cccc(Oc4ncc(Cl)cn4)c23)CC1 [Compound 1.023, 5-(5-chloropyrimidin-2-yl)oxy-4-[2-(1-methoxy-4-piperidyl)ethyl]-2-(trifluoromethyl)quinazoline] | 4 (4=61-80%) | 1 (1=0-20%) | 2 (2=21-40%) | 1 (1=0-20%) | 4 (4=61-80%) | 4 (4=61-80%) | 3 (3=41-60%) | 1 (1=0-20%) | 1 (1=0-20%) | 4 (4=61-80%)
COCCCc1nc(C(F)(F)F)nc2cccc(Oc3ncc(Cl)cn3)c12 [Compound 1.024] | 5 (5=81-100%) | 5 (5=81-100%) | 5 (5=81-100%) | 4 (4=61-80%) | 5 (5=81-100%) | 4 (4=61-80%) | 3 (3=41-60%) | 5 (5=81-100%) | 4 (4=61-80%) | 3 (3=41-60%)
